The test system of experiment [1] is Cytosine deaminase (CDA). Particulars: read-out: Free CDA / Km; free enzyme; Tris-HCl 50 mM pH 7.0, 37 °C. From the text:
deamination, released 5-fluorouracil on Cytosine deaminase (CDA)

For experiment [2], the system named is Cytosine deaminase (CDA). Particulars: read-out: Free CDA / Km; free enzyme; Tris-HCl 50 mM pH 7.0, 37 °C. This is another data set of the same source.

Read-outs that look alike come from different tables or passages of the source.

Regarding `Nc1nc(=O)[nH]cc1F` [5-fluorocytosine], in experiment [1], the Km worked out at 220 µM. For the compound `Nc1cc[nH]c(=O)n1` [Cytosine], the Km in experiment [2] came to 360 µM.

For the origin of these results see PMC9830863, “Aspergillus Niger thermostable Cytosine deaminase-dextran conjugates with enhanced structure stability, proteolytic resistance, and Antiproliferative activity” (BMC Microbiology, 2023).
